“And” between values parts separate entries of the source, which are not always exact repeats. Identical values can stand only once.

From patent US6372727B1, “Metalloporphyrin treatment of neurologic disease” (UAB Research Foundation, priority 1999, dated 2002) come the findings set out here.

Test [1] can be described thus: Peroxynitrite-mediated nitration of GYA peptide. The test is classed as biochemical. Conditions: 2 mM GYA, 10 μM MP, pH 7.4. Here is the method: Nitration efficiency, defined as the moles of nitrated GYA peptide formed per mole of peroxynitrite added, was determined at a fixed concentration of 10 μM MP or Cu,Zn SOD subunit, or 1 mM CO2 as described below. Increasing amounts of peroxynitrite were added in a sequential manner in order to determine whether nitration efficiency varied with concentration and to determine whether nitration catalysis was maintained with multiple additions (see INSET). Nitration efficiency was calculated for each peroxynitrite addition; the values shown are the average of all nine peroxynitrite additions. Absorbance changes were monitored simultaneously at 380, 430, and 460 nm.
(§1) For nitration of GYA peptide (see FIG. 6), reaction solutions contained 2 mM GYA and 10 μM of the indicated MP in 1.4 ml of 0.1 M potassium phosphate, pH 7.4 at 37° C. Comparisons with two previously characterized nitration catalysts, human Cu,Zn superoxide dismutase (hCu,Zn SOD) and carbon dioxide, were made using 10 μM of SOD subunit and 25 mM potassium bicarbonate, respectively, which was pH-adjusted to 7.4. This level of bicarbonate results in rapid saturation of the solution with carbon dioxide (˜1 mM). Solutions were placed into a rapidly stirred cuvette and nine bolus additions (50 μM×3, 100 μM×3, and 200 μM×3) of peroxynitrite were made sequentially while the absorbance was monitored. Increasing amounts of peroxynitrite were added in a sequential manner in order to determine whether nitration efficiency varied with concentration and to determine whether nitration catalysis was maintained with multiple additions (see FIG. 6 inset). Nitration efficiency was defined as the amount of nitropeptide formed per amount of peroxynitrite added and was calculated for each peroxynitrite addition; the values shown are the average of all nine peroxynitrite additions. The absorbance changes associated with nitrotyrosine peptide production were monitored simultaneously at 380, 430, and 460 nm. The extinction coefficients for nitrated GYA at pH 7.4 are 4,400 M^−1cm^−1 at 430 nm and 2,200 M^−1cm^−1 at both 380 and 460 nm. […] Wavelengths used to quantify nitrotyrosine production were chosen to minimize interference by the particular metalloporphyrin used. Experiments using HPA as a nitration target (FIG. 7) contained 8 mM HPA in either 0.1 M potassium phosphate, pH 7.4 or 0.1 M sodium borate, pH 9.1.
The relative abilities of several MPs to enhance nitration of the tripeptide GYA was compared using 10 μM MP and sequential bolus additions of 50 μM (×3), 100 μM (×3), and 200 μM (×3)peroxynitrite (FIG. 6, inset).

Test [2] can be described thus: Ascorbate oxidation by MPs monitored at 266 nm. In kind it is biochemical. Conditions: MP 10 μM, 50 μM ascorbate, 0.1 M potassium phosphate pH 7.4, ± standard error, n=3. Here is the method:
(§2) In order to test the hypothesis that Mn(II)- or Fe(II)-porphyrins would be capable of carrying out two-electron reductions of peroxynitrite and thereby decreasing rather than increasing its reactivity, attempts were made to pre-reduce these transition metal-containing MPs prior to addition of peroxynitrite.
Table V. Ascorbate oxidation by MPs. MPs (10 μM) were added to stirred cuvettes containing 0.1 M potassium phosphate, pH 7.4 and 50 μM ascorbate. Ascorbate oxidation was monitored at 266 nm (ηm=17,700 M^−1cm^−1). Oxidation rates (±standard errors) were determined by fitting the initial linear portion of each curve and averaging the rates (n=3).

For test [3] the following is noted: MP 5 μM, GSH 2 mM, 0.1 M potassium phosphate pH 7.4, 37° C. Here is the method: Aliquots (14 μl) were removed at 10 min intervals and added to 1.4 of 0.1 M potassium phosphate, pH 7.4 containing 0.2 mM dithionitrobenzoic acid (Ellman's Reagent) and 50 μM EDTA. GSH concentration was determined by the change in 430 nm absorbance. The extinction coefficient at 430 nm was determined to be 13,900 M^−1cm^−1 using a fresh GSH solution standardized by weight.
as §2

The nature of test [4]: MP-catalyzed peroxynitrite decomposition monitored at 302 nm. Conditions: 100 μM peroxynitrite. In kind it is biochemical. As to the method: Peroxynitrite (100 μM) was added to rapidly stirred cuvettes at 37° C. containing the indicated concentrations of MPs in 0.1 M potassium phosphate, pH 7.4. Ascorbate was added to 150 μM where indicated. Peroxynitrite decomposition was monitored at 302 nm using a Hewlett-Packard diode-array spectrophotometer. Apparent rates (kapparents^−1, average of n=3) were plotted versus MP concentration to determine rate constants in M^−1s^−1.
Reactions contained the indicated concentration of FeTCPPin 1.4 ml of 0.1 M potassium phosphate, pH 7.4 in the absence or presence to 150 μM ascorbic acid. Peroxynitrite (100 μM) was added to rapidly stirred cuvettes at 37° C. and the decay of peroxynitrite was monitored continuously at 302 nm. Decay data were fitted to the equation describing first order decay to obtain apparent decay rates (kapparent sec^−1). Apparent decay rates as a function of FeTCPP were fitted by linear regression and the rate constant was obtained slope of the line.
Peroxynitrite (100 μM) decomposition was determined at 302 nm using a Hewlett-Packard diode-array spectrophotometer fitted with a temperature-controlled cuvette chamber and a water-driven cuvette stirrer. Bolus additions of peroxynitrite were made to vigorously stirred cuvettes containing varying concentrations of MPs (see Table III) while data were collected at a rate of ten points/sec. […] Each reaction was repeated three times and only the first additions of peroxynitrite were averaged. Data were exported for fitting and plotting. Apparent rates of peroxynitrite decomposition were plotted as a function of metalloporphyrin concentration (as shown in FIG. 5) to determine concentration-independent rate constants at 37° C.
Rates of peroxynitrite (100 μM) decomposition were determined at different MP concentrations. Ascorbate was added to 150 μM where indicated. […] Apparent rate constants were plotted versus MP concentration (as in FIG. 5A,B) to determine true rate constants in M^−1s^−1±standard error.

A short description of test [5]: MP-catalyzed nitration of HPA: effect of pH, reductants and serum. In kind it is biochemical. The following applies: for enhancement of nitration yield at pH 9.1 / effect of ascorbate on nitration enhancement: 8 mM HPA, 10 μM MP; for enhancement of nitration yield at pH 9.1: 0.1 M sodium borate pH 9.1, versus non-catalyzed; for effect of ascorbate and GSH on nitration enhancement: concentrations which eliminated non-catalyzed nitration; for effect of serum on nitration enhancement: fresh human serum 1:10 added prior to peroxynitrite; for effect of ascorbate on nitration enhancement: ascorbate 150 μM, pH 7.4. As to the method:
Single additions of 100 μM peroxynitrite were made to reactions containing ascorbate or GSH. Three sequential additions of 100 μM peroxynitrite were made to all other reactions.
as §1, with “This” for “For nitration of GYA peptide (see FIG. 6), reaction solutions contained 2 mM GYA and 10 μM of the indicated MP in 1.4 ml of 0.1 M potassium phosphate, pH 7.4 at 37° C. Comparisons with two previously characterized nitration catalysts, human Cu,Zn superoxide dismutase (hCu,Zn SOD) and carbon dioxide, were made using 10 μM of SOD subunit and 25 mM potassium bicarbonate, respectively, which was pH-adjusted to 7.4. This”

Test [6] in a line: Oxidation of metalloporphyrins by peroxynitrite, stopped-flow spectroscopy. In kind it is biochemical. The following applies: 37° C., 0.1 M potassium phosphate pH 7.4, pseudo-first order, ± standard error. As to the method: Peroxynitrite (in 10 mM NaOH) was rapidly mixed with the indicated MPs in 0.1 M potassium phosphate, pH 7.4 at 37° C. using a stopped-flow apparatus as described in Methods. […] A final concentration of 40 μM peroxynitrite was added to 8 μM of each of the MPs MnTBAP, MnPPIX, and FePPIX. […] INSET: Apparent rate constants for oxidation of 8 μM MnTBAP are plotted as a function of peroxynitrite concentration to illustrate how the rate constants listed in Table III were determined.
Rates of metal loporphyrin oxidation by peroxynitrite were determined using a Bio Sequential SX-18MV Applied Photophysics stopped-flow spectrofluorometer. Solutions of metalloporphyrins in 0.1 M potassium phosphate buffer, pH 7.4 were placed in one syringe and solutions of peroxynitrite in 10 mM NaOH were placed in a second syringe, both of which were submerged in a water bath at 37° C. Changes in metalloporphyrin absorbance as a function of time were recorded following triggering of syringe firing and solution mixing (instrument dead time=2 msec); a total of 1000 data points were collected over intervals ranging from 50 msec to 3 sec. […] Because the absorbance changes associated with loss of +3 forms were greater, rates of metalloporphyrin oxidation were determined by monitoring the disappearance of Mn(III)TMPyP at 462 nm, Mn(III)TBAP at 468 nm, Mn(III)PPIX at 466 nm, and Fe(III)PPIX at 464 nm. Absorbance changes as a function of time were fitted to the equation describing a first order process. The concentration of peroxynitrite was varied from five-fold to forty-fold greater than the fixed metalloporphyrin concentration in order to obtained pseudo first-order conditions (see Table III). Each concentration was injected 10 times and data were averaged automatically prior to fitting.
Rate constants for stoichiometric metalloporphyrin oxidation by peroxynitrite at 37° C. were determined under pseudo-first order reaction conditions by varying the amount of peroxynitrite added to a fixed concentration of metalloporphyrin (Table III).
In Table III, the rate of peroxynitrite-mediated oxidation of metalloporphyrins at 37° C. was determined. Apparent rate constants were determined by stopped-flow spectroscopy and plotted versus the peroxynitrite concentration (as shown for MnTBAP in FIG. 4 inset) to determine the bimolecular rate constant in M^−1s^−1±standard error. FePPIX was monitored at 387 nm, MnPPIX at 464 nm, and MnTBAP at 470 nm.

Consider `C[n+]1ccc(-c2c3nc(c(-c4cc[n+](C)cc4)c4ccc([n-]4)c(-c4cc[n+](C)cc4)c4nc(c(-c5cc[n+](C)cc5)c5ccc2[n-]5)C=C4)C=C3)cc1.Cc1ccc(S(=O)(=O)[O-])cc1.Cc1ccc(S(=O)(=O)[O-])cc1.Cc1ccc(S(=O)(=O)[O-])cc1.Cc1ccc(S(=O)(=O)[O-])cc1.[Cu+2]` [CuTMPyP, Copper (II) meso-tetra-(N-methyl-4-pyridyl)-porphine tetra tosylate], for which the effect on nitration result in test [1] is “small but reproducible inhibitory effect”. Further, in test [2], the “Rate of Ascorbate Oxidation” value was found to be 6.50 ± 0.32 µM/min. The “rate of GSH oxidation” value in test [3] came out at 29 µM/min.

In the case of `C=CC1=C(C)c2cc3[n-]c(cc4nc(cc5[n-]c(cc1n2)c(C)c5CCC(=O)O)C(CCC(=O)O)=C4C)c(C)c3C=C.[Fe]` [FePPIX, Iron (III) protoporphyrin IX dichloride], the “Rate Constants for MP-Catalyzed Decomposition of Peroxynitrite (pH 7.4, 37° C.)” value (“Rate Constants … (pH 7.4, 37° C.)” below) in test [4] (absence of added reductants) is 3.7×10^5 M^−1s^−1 and 3.7 × 10^5 ± 0.2 M^−1s^−1. Besides, in test [5], the “enhancement of nitration yield at pH 9.1” value came out at 5.7 fold; the “effect of ascorbate and GSH on nitration enhancement” value (“effect of ascorbate and GSH” for short) is “much less inhibitory effect”; the “effect of serum on nitration enhancement” value is recorded as “largely eliminated the nitration enhancement”. Further, in test [2], the “Rate of Ascorbate Oxidation” value is 1.33 ± 0.07 µM/min. Also, the “Rate Constants for Oxidation of MPs by Peroxynitrite” value (from here on “Rate Constants for Oxidation of MPs”) in test [6] stood at 1e+06 M⁻¹ s⁻¹.

For the compound `C=CC1=C(C)c2cc3[n-]c(cc4[n-]c(cc5nc(cc1n2)C(C)=C5C=C)c(C)c4CCC(=O)[O-])c(CCC(=O)[O-])c3C.[H+].[H+].[Mn+2]` [MnPPIX, Manganese (III) protoporphyrin IX dichloride], in test [5], the “enhancement of nitration yield at pH 9.1” value is listed as “did not enhance nitration yields”; the “effect of ascorbate on nitration enhancement” value was “pronounced inhibitory effect”; the “effect of ascorbate and GSH” value is recorded as “largely prevented the enhancement of nitration”; the “effect of serum on nitration enhancement” value is listed as “largely eliminated the nitration enhancement”. The “Rate of Ascorbate Oxidation” value in test [2] worked out at 0.96 ± 0.05 µM/min. Further, the “Rate Constants for Oxidation of MPs” value in test [6] came to 99000 M⁻¹ s⁻¹.

As to `O=C(O)c1ccc(-c2c3nc(c(-c4ccc(C(=O)O)cc4)c4ccc([n-]4)c(-c4ccc(C(=O)O)cc4)c4nc(c(-c5ccc(C(=O)O)cc5)c5ccc2[n-]5)C=C4)C=C3)cc1.[Mn+3]` [MnTBAP, Manganese (III) tetra-(4-benzoic acid)-porphyrin], in test [4] (absence of added reductants), the “Rate Constants … (pH 7.4, 37° C.)” value is reported as “no acceleration”. Besides, in test [4] (plus ascorbate 150 μM), the “Rate Constants … (pH 7.4, 37° C.)” value is 3.3 × 10^4 ± 0.4 M^−1s^−1. In addition, in test [5], the “enhancement of nitration yield at pH 9.1” value is on record as “did not enhance nitration yields”; the “effect of ascorbate on nitration enhancement” value is reported as “pronounced inhibitory effect”; the “effect of ascorbate and GSH” value is recorded as “largely prevented the enhancement of nitration”; the “effect of serum on nitration enhancement” value is “largely eliminated the nitration enhancement”. The “Rate Constants for Oxidation of MPs” value in test [6] was found to be 25000 M⁻¹ s⁻¹.
